According to patent publication US9789096B2, “Methods and compositions for selective and targeted cancer therapy” (Board of Regents of the University of Texas System, priority 2013, dated 2017):

Assays:
SCD1 = molecular target: T1, SCD1 (Homo sapiens, UniProt O00767); assay: Cross-linking of SW208108 in 12 NSCLC cell lines; type: cell-based
T1 sequence (O00767 1-359): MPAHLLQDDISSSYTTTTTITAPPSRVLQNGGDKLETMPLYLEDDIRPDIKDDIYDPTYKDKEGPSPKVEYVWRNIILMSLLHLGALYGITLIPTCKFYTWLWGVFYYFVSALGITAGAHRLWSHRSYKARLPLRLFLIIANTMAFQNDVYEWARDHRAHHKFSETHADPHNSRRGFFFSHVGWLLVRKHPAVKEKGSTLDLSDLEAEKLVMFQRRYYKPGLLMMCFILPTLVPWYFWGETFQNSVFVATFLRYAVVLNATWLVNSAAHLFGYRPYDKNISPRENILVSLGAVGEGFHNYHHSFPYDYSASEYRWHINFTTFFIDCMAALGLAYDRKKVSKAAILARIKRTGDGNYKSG
Description: FIGS. 9A-9D. Selective toxins selectively cross-link to SCD1 in sensitive cells and are selectively metabolized in sensitive cells. FIG. 9A. 12 NSCLC cell lines were incubated with SW208108 and processed as described in FIG. 7. […] FIG. 9B. […] FIG. 9C. […] Demethylation is the anticipated mode of metabolism. FIG. 9D. A representative benzothiazole is demethylated by sensitive cell lines. […] Values in FIGS. 9C and 9D were obtained by tandem HPLC/MS/MS.
In this context, 12 different NSCLC cell lines were treated with SW208108, lysed and clicked to a dye as previously described. […] To understand how SW208108 could selectively cross-link to SCD1 within some cell lines that expressed the enzyme but not other cell lines that expressed the same enzyme, we investigated the stability of a representative oxalamide in the presence of a sensitive and insensitive cell line. […] Similarly, a representative benzothiazole was metabolized by H2122 cells through, at least in part, the loss of the O-methyl group (FIG. 9D).

H2122 clones = assay: Toxicity to H2122 clones with loss of HMOX2; type: cell-based, human
Description: FIG. 7O. H2122 cells were engineered to have homozygous or heterozygous loss of HMOX2. hCas9 and guide RNA's targeting HMOX2 were co-expressed in H2122 cells and then cells were individually cloned. Individual clones were raised and analyzed for HMOX2 expression.
FIG. 7P. HMOX2 loss has no impact on the sensitivity of cells to SW208108. A dose response curve assaying the toxicity of SW208108 to H2122 clones identified in FIG. 7O was determined. There is no correlation between HMOX2 expression and SW208108 potency.
However, when HO2 was knocked out from H2122 cells using Crisper technology (FIG. 7O), no toxicity was observed, and SW208108 and related compounds retained toxicity towards H2122 cells (FIG. 7P). We conclude that HO2 is not required for cell survival or for the cytotoxicity of the selective toxins.

## C#CCOc1ccc(C(=O)c2ccc(NC(=O)C(=O)NCCc3ccc(OC)cc3)cc2)cc1 [SW208108]
SCD1
  cross linked SCD1 bands in 12 NSCLC cell lines: Prominent cross linked bands
H2122 clones
  impact of HMOX2 loss on sensitivity of H2122 clones: no impact
